Measurements as given in ChEMBL document CHEMBL1139640, “Water soluble prodrug of a COX-2 selective inhibitor suitable for intravenous administration in models of cerebral ischemia” (Bioorg Med Chem Lett, 2005).

Assays:
Rattus norvegicus [1] = test: Concentration of compound 16 in brain of Sprague-Dawley rats upon 5 mg/kg bolus+ 3 mg/Kg/h infusion of compound after 24 hours; type: functional, organism-based
Rattus norvegicus [2] = test: Concentration of compound 16 in plasma of Sprague-Dawley rats upon 5 mg/kg bolus+ 3 mg/Kg/h infusion of compound after 6 hours; type: functional, organism-based
Rattus norvegicus [3] = test: Concentration of compound 16 in plasma of Sprague-Dawley rats upon 5 mg/kg bolus+ 3 mg/Kg/h infusion of compound after 24 hours; type: functional, organism-based
Rattus norvegicus [4] = test: Ratio of concentration of compound 16 in brain to that of plasma of Sprague-Dawley rats upon 5 mg/kg bolus+ 3 mg/Kg/h infusion of compound after 24 hours; type: functional
Rattus norvegicus [5] = test: Ratio of concentration of compound 16 in brain to that of plasma of Sprague-Dawley rats upon 10 mg/kg bolus+ 5 mg/Kg/h infusion of compound after 24 hours; type: functional
Rattus norvegicus [6] = test: Concentration of compound 16 in plasma of Sprague-Dawley rats upon 10 mg/kg bolus+ 5 mg/Kg/h infusion of compound after 6 hours; type: functional, organism-based
Rattus norvegicus [7] = test: Concentration of compound 16 in brain of Sprague-Dawley rats upon 10 mg/kg bolus+ 5 mg/Kg/h infusion of compound after 24 hours; type: functional, organism-based
Rattus norvegicus [8] = test: Concentration of compound 16 in plasma of Sprague-Dawley rats upon 10 mg/kg bolus+ 5 mg/Kg/h infusion of compound after 24 hours; type: functional, organism-based
Rattus norvegicus [9] = test: Concentration of compound 1 in plasma of Sprague-Dawley rats upon 10 mg/kg iv dose after 3 hours; type: functional, organism-based; set-up: dose 10 mg/kg
Rattus norvegicus [10] = test: Plasma concentration of compound 1 in Sprague-Dawley rats upon 2 mg/kg iv dose of prodrug after 30 minutes; type: functional, organism-based; set-up: dose 2 mg/kg
Rattus norvegicus [11] = test: Concentration of compound 1 in brain of Sprague-Dawley rats upon 10 mg/kg iv dose after 3 hours; type: functional, organism-based; set-up: dose 10 mg/kg
[12] = biological target: T1, Prostaglandin G/H synthase 2 (Homo sapiens, UniProt P35354); test: Inhibitory concentration against prostaglandin G/H synthase 2 in human whole blood
T1 sequence (P35354 whole entry): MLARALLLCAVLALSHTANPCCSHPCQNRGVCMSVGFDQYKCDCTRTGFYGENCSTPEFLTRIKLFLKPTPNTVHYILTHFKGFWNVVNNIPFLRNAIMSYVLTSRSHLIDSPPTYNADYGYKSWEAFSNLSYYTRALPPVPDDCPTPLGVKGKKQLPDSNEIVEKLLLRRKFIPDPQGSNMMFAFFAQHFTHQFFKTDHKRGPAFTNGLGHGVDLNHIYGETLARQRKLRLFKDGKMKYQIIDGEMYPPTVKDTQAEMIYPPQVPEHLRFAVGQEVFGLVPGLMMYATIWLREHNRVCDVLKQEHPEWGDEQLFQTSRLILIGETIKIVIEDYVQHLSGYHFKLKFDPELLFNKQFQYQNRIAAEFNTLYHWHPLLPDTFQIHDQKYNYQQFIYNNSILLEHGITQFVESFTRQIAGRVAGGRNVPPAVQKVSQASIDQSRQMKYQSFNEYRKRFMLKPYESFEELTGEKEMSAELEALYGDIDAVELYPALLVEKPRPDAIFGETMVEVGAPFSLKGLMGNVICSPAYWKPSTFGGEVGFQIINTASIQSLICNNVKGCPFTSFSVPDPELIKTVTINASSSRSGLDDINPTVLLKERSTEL

[13] = biological target: Prostaglandin G/H synthase 1 (Homo sapiens, UniProt P23219); test: Inhibitory concentration against prostaglandin G/H synthase 1 in human whole blood; type: tissue-based
Chain of Prostaglandin G/H synthase 1 (P23219 whole entry): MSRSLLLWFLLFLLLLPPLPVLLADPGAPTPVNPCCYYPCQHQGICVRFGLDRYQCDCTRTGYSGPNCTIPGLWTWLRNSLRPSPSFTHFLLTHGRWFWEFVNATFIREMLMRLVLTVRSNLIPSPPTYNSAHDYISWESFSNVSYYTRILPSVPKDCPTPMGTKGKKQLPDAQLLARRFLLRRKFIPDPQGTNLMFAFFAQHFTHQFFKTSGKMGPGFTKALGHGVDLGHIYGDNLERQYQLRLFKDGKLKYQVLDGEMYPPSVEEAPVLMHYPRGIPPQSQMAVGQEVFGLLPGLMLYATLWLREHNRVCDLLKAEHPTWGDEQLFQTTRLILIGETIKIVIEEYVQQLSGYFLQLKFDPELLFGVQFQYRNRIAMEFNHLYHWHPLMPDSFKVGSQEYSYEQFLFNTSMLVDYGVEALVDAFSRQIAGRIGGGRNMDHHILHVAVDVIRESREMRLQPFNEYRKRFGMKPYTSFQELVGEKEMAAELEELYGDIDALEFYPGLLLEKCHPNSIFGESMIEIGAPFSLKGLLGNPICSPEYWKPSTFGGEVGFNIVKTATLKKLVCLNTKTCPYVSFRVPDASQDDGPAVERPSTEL

`CC(=O)OC/C(=C(\C(=O)OCC[N+](C)(C)C)c1cccc(F)c1)c1ccc(S(C)(=O)=O)cc1.[Br-]` showed a Concentration (Rattus norvegicus [1]) of 5.5 µM, a Concentration (Rattus norvegicus [2]) of 6 µM and a Concentration (Rattus norvegicus [3]) of 9.2 µM. For the same compound, the Ratio (Rattus norvegicus [4]) was 59%, the Ratio (Rattus norvegicus [5]) was 55% and the Concentration (Rattus norvegicus [6]) was 16 µM. For the same compound, the Concentration (Rattus norvegicus [7]) was 11 µM and the Concentration (Rattus norvegicus [8]) was 20 µM.

For `CC(=O)OC/C(=C(\C(=O)OCC[N+](C)(C)C)c1ccc(F)c(F)c1)c1ccc(S(C)(=O)=O)cc1`, the Concentration (Rattus norvegicus [9]) was 1.4 µM, the Concentration (Rattus norvegicus [10]) was 0.9 µM and the Concentration (Rattus norvegicus [11]) was 0.7 µM.

For `CCOC(=O)[C@H](N)COC(=O)/C(=C(\COC(C)=O)c1ccc(S(C)(=O)=O)cc1)c1ccc(F)c(F)c1`, the Concentration (Rattus norvegicus [10]) was 1.4 µM.

`CS(=O)(=O)c1ccc(C2=C(c3cccc(F)c3)C(=O)OC2)cc1` showed an IC50 [12] of 1.3 µM and an IC50 [13] of 65 µM.

Compound `CCOC(=O)/C(=C(\COC(=O)[C@@H](N)CCCCN)c1ccc(S(C)(=O)=O)cc1)c1ccc(F)c(F)c1` has a Concentration (Rattus norvegicus [10]) of 0.4 µM.
